This is an account of results in patent US8722723B2, “Aromatic amide derivative” (Research Foundation Itsuu Laboratory, priority 2008, dated 2014).

The test system of one series is luciferase (Luc). Put plainly: Reporter assay: Hela cells transfected with human RORα1 expression vector and luciferase (Luc) reporter vector; Luc activity corrected with β-Gal activity. The note with it: human RORα1 expression vector, rev-DR2/TK-Luc reporter, about 1 day, smaller number = inhibitory, larger = promoting. The arrangement: key: β-Gal-corrected Luc activity; smaller = inhibition, larger = promotion. The series is classed as cell-based, firefly. As to the method:
The reporter assay was used, in which Hela cells transfected with each of a pcDNA3 vector incorporated with the human RORα1 so that the gene can be expressed in animal cells as an expression vector, and a pGL3 promoter vector of which SV40 promoter was replaced with TK promoter as a luciferase expression reporter vector were used.
The Hela cells were placed at a density of 2×10^4 cells/0.1 mL/well on a 96-well cell culture plate (FALCON) by using 10% FBS-DMEM. On the next day, the human RORα1 expression vector, the reporter vector incorporated with 3 copies of rev-DR2 sequences and the HSV thymidine kinase promoter at a position upstream from the luciferase (Luc) gene, and a β-galactosidase (β-Gal) expression vector for control were introduced into the cells by using a transfection reagent (Fugene6, Roche). On the next day, the medium was replaced with 5% FBS-DMEM containing a test compound diluted at a prescribed concentration, after about 1 day, the cell supernatant was removed, then the cells were lysed (Passive Lysis buffer, Promega), the Luc substrate (PicaGene, Toyo Ink) was added to a part of the lysed cells, and the activity of produced Luc was measured as luminescence intensity. Further, the β-Gal activity was measured as intensity of fluorescence generated when 4-methylumbelliferyl β-D-galactoside was added as a substrate, and the activity of Luc corrected for the transfection efficiency with the β-Gal activity was used as the index for evaluation. A smaller number indicates inhibitory action, and a larger number indicates promoting action.
(Reporter assays use an easily measured gene product as a stand-in for the process of interest.)

Consider `CCOC(=O)CCCc1ccc(NC(=O)c2cc([N+](=O)[O-])ccc2C)cc1` [Compound 37, 4-[4-(2-methyl-5-nitro-benzoylamino)-phenyl]-butyric acid ethyl ester], for which the melting point (in general, the temperature of the solid-liquid transition) was in the range of 108 to 109 °C. The compound `CN(C)c1ccc2c(c1)C(=O)N(c1ccc(OCC(=O)O)cc1)C2` [Compound 28, [4-(6-dimethylamino-1-oxo-1,3-dihydro-isoindol-2-yl)-phenoxy]-acetic acid] gave a melting point of 206 to 208 °C. Further, in the series with luciferase (Luc) (test compound 0.01 μM), the “activity of Luc corrected for the transfection efficiency with the β-Gal activity” value (“activity of Luc corrected” below) is on record as 1.1. In the series with luciferase (Luc) (test compound 0.1 μM), the “activity of Luc corrected” value came out at 0.8. The “activity of Luc corrected” value with luciferase (Luc) (test compound 1 μM) is given as 0.2. Further, in the series on luciferase (Luc) (test compound 10 μM), the “activity of Luc corrected” value was determined as 0.1. In the same order, the values of `CN(C)c1ccc2c(c1)C(=O)N(c1ccc(CCCC(=O)O)cc1)C2` [Compound 18, 4-[4-(6-dimethylamino-1-oxo-1,3-dihydro-isoindol-2-yl)-phenyl]-butyric acid] are 186 to 187 °C, 0.1, 0, 0.0 and 0.0. In turn, `CCCCc1ccc(N2Cc3cc(N(C)C)ccc3C2=O)cc1` [Compound 3, 5-dimethylamino-2-(4-n-butyl-phenyl)-isoindol-1-one] yielded a melting point of 133 to 134 °C. On the same count and under the same terms, the same measure for `CCOC(=O)CCCc1ccc(N2Cc3cc(N(C)C)ccc3C2=O)cc1` [Compound 15, 4-[4-(5-dimethylamino-1-oxo-1,3-dihydro-isoindol-2-yl)-phenyl]-butyric acid ethyl ester]: 116 to 117 °C; for `COC(=O)COc1ccc(N2Cc3ccc([N+](=O)[O-])cc3C2=O)cc1` [Compound 25, [4-(6-nitro-1-oxo-1,3-dihydro-isoindol-2-yl)-phenoxy]-acetic acid methyl ester]: 238 to 239 °C. With `CCCCCCCc1ccc(N2Cc3cc(N(C)C)ccc3C2=O)cc1` [Compound 7, 5-dimethylamino-2-(4-n-heptyl-phenyl)-isoindol-1-one], the melting point is 133 to 134 °C. Besides, the “activity of Luc corrected” value in the series on luciferase (Luc) (test compound 0.01 μM) is 1.0. In the series on luciferase (Luc) (test compound 0.1 μM), the “activity of Luc corrected” value was 1.1. Moreover, the “activity of Luc corrected” value in the series on luciferase (Luc) (test compound 1 μM) is on record as 1.1. In addition, the “activity of Luc corrected” value in the series with luciferase (Luc) (test compound 10 μM) stood at 1.1. Compound `CCCCCCCCc1ccc(N2Cc3cc(N(C)C)ccc3C2=O)cc1` [Compound 9, 5-dimethylamino-2-(4-n-octyl-phenyl)-isoindol-1-one] showed a melting point of 128 to 129 °C.

For `COC(=O)CCc1ccc(N2Cc3ccc(N(C)C)cc3C2=O)cc1` [Compound 21, 3-[4-(6-dimethylamino-1-oxo-1,3-dihydro-isoindol-2-yl)-phenyl]-propionic acid methyl ester], the melting point was in the range of 123 to 124 °C. Regarding `CN(C)c1ccc2c(c1)CN(c1ccc(C3CCCCC3)cc1)C2=O` [Compound 11, 5-dimethylamino-2-(4-cyclohexyl-phenyl)-isoindol-1-one], the results for the “activity of Luc corrected” value in the series with luciferase (Luc) (test compound 1 μM) and with luciferase (Luc) (test compound 10 μM) were 2.1 and 2.6, respectively. In the case of `CCCc1ccc(N2Cc3cc(N(C)C)ccc3C2=O)cc1` [Compound 1, 5-dimethylamino-2-(4-propyl-phenyl)-isoindol-1-one], the melting point was in the range of 160 to 161 °C. In the case of `CCOC(=O)C=Cc1ccc(N2Cc3ccccc3C2=O)cc1` [Compound 23, 3-[4-(1-oxo-1,3-dihydro-isoindol-2-yl)-phenyl]-acrylic acid ethyl ester], the melting point was 184 to 185 °C. For the same compound, in the series with luciferase (Luc) (test compound 0.01 μM), the “activity of Luc corrected” value worked out at 0.8. For the same compound, the “activity of Luc corrected” value in the series on luciferase (Luc) (test compound 0.1 μM) came to 0.9. Besides, the “activity of Luc corrected” value in the series with luciferase (Luc) (test compound 1 μM) is listed as 0.6. In addition, the “activity of Luc corrected” value with luciferase (Luc) (test compound 10 μM) was 0.5. Consider `CN(C)c1cccc(C(=O)Nc2ccc(CCCC(=O)O)cc2)c1` [Compound 34, 4-[4-(3-dimethylamino-benzoylamino)-phenyl]-butyric acid], for which the melting point was in the range of 127 to 128 °C. Turning to `CN(C)c1ccc2c(c1)C(=O)N(c1ccc(CCC(=O)O)cc1)C2` [Compound 22, 3-[4-(6-dimethylamino-1-oxo-1,3-dihydro-isoindol-2-yl)-phenyl]-propionic acid], the melting point is 200 to 201 °C. `COC(=O)COc1ccc(N2Cc3ccc(N(C)C)cc3C2=O)cc1` [Compound 27, [4-(6-dimethylamino-1-oxo-1,3-dihydro-isoindol-2-yl)-phenoxy]-acetic acid methyl ester] displayed a melting point of 167 to 168 °C. With `CCOC(=O)CCCc1ccc(N2Cc3ccccc3C2=O)cc1` [Compound 19, 4-[4-(1-oxo-1,3-dihydro-isoindol-2-yl)-phenyl]-butyric acid ethyl ester], the melting point is 94 to 96 °C. `CC(C)c1ccc(N2Cc3cc(N(C)C)ccc3C2=O)cc1` [Compound 5, 5-dimethylamino-2-(4-isopropyl-phenyl)-isoindol-1-one] returned a melting point of 167 to 169 °C. In the case of `CCCCCCCc1ccc(N2Cc3ccc(N(C)C)cc3C2=O)cc1` [Compound 8, 6-dimethylamino-2-(4-n-heptyl-phenyl)-isoindol-1-one], the melting point was in the range of 101 to 102 °C. Consider `CN(C)c1ccc2c(c1)C(=O)N(c1ccc(CCCC(=O)OC(C)(C)C)cc1)C2` [Compound 31, 4-[4-(6-dimethylamino-1-oxo-1,3-dihydro-isoindol-2-yl)-phenyl]-butyric acid tert-butyl ester], for which the “activity of Luc corrected” value was found to be 0.8 with luciferase (Luc) (test compound 0.01 μM), 0.4 in the series with luciferase (Luc) (test compound 0.1 μM), 0.1 in the series with luciferase (Luc) (test compound 1 μM) and 0.0 in the series on luciferase (Luc) (test compound 10 μM).

`CN(C)c1ccc2c(c1)CN(c1ccc(CCCC(=O)O)cc1)C2=O` [Compound 16, 4-[4-(5-dimethylamino-1-oxo-1,3-dihydro-isoindol-2-yl)-phenyl]-butyric acid]: the melting point was in the range of 179 to 180 °C.

In the case of `CCOC(=O)CCCc1ccc(N2Cc3ccc(N(C)C)cc3C2=O)cc1` [Compound 17, 4-[4-(6-dimethylamino-1-oxo-1,3-dihydro-isoindol-2-yl)-phenyl]-butyric acid ethyl ester], the “activity of Luc corrected” value turned out to be 0.2 in the series with luciferase (Luc) (test compound 0.01 μM), 0 in the series on luciferase (Luc) (test compound 0.1 μM), 0 in the series on luciferase (Luc) (test compound 1 μM) and 0.0 in the series on luciferase (Luc) (test compound 10 μM). As for `CCCCCCCNc1cccc2c1CN(c1cc(C)cc(C)c1)C2=O` [Compound 33, 2-(3,5-dimethyl-phenyl)-4-heptylamino-2,3-dihydro-isoindol-1-one], the melting point fell in the range of 68 to 69 °C. In turn, `COC(=O)COc1ccc(N2Cc3ccc(N)cc3C2=O)cc1` [Compound 26, [4-(6-amino-1-oxo-1,3-dihydro-isoindol-2-yl)-phenoxy]-acetic acid methyl ester] displayed a melting point of 197 to 198 °C.

As to `O=C(O)C=Cc1ccc(N2Cc3ccccc3C2=O)cc1` [Compound 24, 3-[4-(1-oxo-1,3-dihydro-isoindol-2-yl)-phenyl]-acrylic acid], the “activity of Luc corrected” value in the series on luciferase (Luc) (test compound 0.01 μM) is reported as 0.9; with luciferase (Luc) (test compound 0.1 μM), 0.7; with luciferase (Luc) (test compound 1 μM) it was 0.5; in the series on luciferase (Luc) (test compound 10 μM) it was 0.4.

Compound `O=C(O)CCCc1ccc(N2Cc3ccccc3C2=O)cc1` [Compound 20, 4-[4-(1-oxo-1,3-dihydro-isoindol-2-yl)-phenyl]-butyric acid] gave a melting point of 128 to 129 °C. `Cc1ccc([N+](=O)[O-])cc1C(=O)Nc1ccc(CCCC(=O)O)cc1` [Compound 38, 4-[4-(2-methyl-5-nitro-benzoylamino)-phenyl]-butyric acid]: the melting point fell in the range of 172 to 173 °C. `CC(C)c1ccc(N2Cc3ccc(N(C)C)cc3C2=O)cc1` [Compound 6, 6-dimethylamino-2-(4-isopropyl-phenyl)-isoindol-1-one]: the melting point lay in the range of 169 to 170 °C. As to `CN(C)c1cccc2c1C(=O)N(c1ccccc1)C2` [Compound 13, 7-dimethylamino-2-phenyl-2,3-dihydro-isoindol-1-one], the melting point fell in the range of 58 to 60 °C. Same read-out and setting: as for `CCOC(=O)CCCc1ccc(NC(=O)c2cc(C)ccc2[N+](=O)[O-])cc1` [Compound 39, 4-[4-(5-methyl-2-nitro-benzoylamino)-phenyl]-butyric acid ethyl ester], the figure is 126 to 127 °C.
